Source: patent US20070275911A1, “Targeted Drug-Formaldehyde Conjugates and Methods of Making and Using the Same” (priority 2003, published 2007)
Where two headings read alike, the source gives them in different places.

Key:
[1] = Hydrolysis and stability of DOX-TEG-TAM; type: physicochemical
Method: Results: Hydrolysis and stability. A standard solution of DOX-TEG-TAM (11c) in dimethylsulfoxide (DMSO) containing 1% v/v acetic acid (AcOH) was diluted 1:100 in two different buffers: lysis buffer (pH 7.4, 10 mM Tris, 1.5 mM EDTA, 10 mM Na2MoO4) used for binding experiments or TE buffer (pH 7.6, 10 MM Tris, 1 mM EDTA). Samples incubated at 37° C. and 4° C. were monitored by HPLC to detect the loss of intact targeted drug and the formation of doxorubicin. The hydrolysis data was fit using first-order reaction kinetics to provide first-order rate constants; the hydrolysis half-life was then calculated using t1/2=ln2/k.
The DOX-TEG-TAM was diluted 1:100 in either pH 7.6 TE buffer (10 mM tris, 1 mM EDTA buffer) or pH 7.4 lysis buffer (10% v/v glycerol, 10 mM Tris, 1.5 mM EDTA, 10 mM Na2MoO4). A sample of each buffer was kept at 37° C. and 4° C. and monitored by HPLC using Method #2 (described above) to track the loss of DOX-TEG-TAM and the subsequent formation of doxorubicin. The area-under-the-curve (AUC) was used to calculate the percentage of intact material versus time. The hydrolysis data were fit to first-order kinetics using Regression (Blackwell Scientific Publishing, London) software. The reaction rate constants were 0.012±0.0007 min^−1 (pH 7.6) and 0.0092±0.0003 min^−1 (pH 7.4) at 37° C.; 0.0058±0.0005 h^−1 (pH 7.6) and 0.0038±0.0003 h^−1 ([…]) at 4° C. The half-life for hydrolysis was then calculated from the rate constants using t1/2=ln2/k.

AEBS = biological target: T1, AEBS (Homo sapiens, UniProt Q15125+Q9UBM7); assay: AEBS binding, competition with 3H-tamoxifen in MCF-7 cell lysate; conditions: 50 nM competitor
T1 construct: MCF-7 cells were utilized as the AEBS source; endogenous in cells; host or cells: MCF-7 cells
T1 sequence (Q15125 2-230): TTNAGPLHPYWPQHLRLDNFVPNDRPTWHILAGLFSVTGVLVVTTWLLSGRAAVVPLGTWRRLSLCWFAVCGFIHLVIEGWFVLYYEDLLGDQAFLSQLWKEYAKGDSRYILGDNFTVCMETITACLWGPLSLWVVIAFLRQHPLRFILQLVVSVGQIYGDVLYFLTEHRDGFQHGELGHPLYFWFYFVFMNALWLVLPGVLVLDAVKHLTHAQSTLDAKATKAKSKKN
T1 sequence (Q9UBM7 whole entry): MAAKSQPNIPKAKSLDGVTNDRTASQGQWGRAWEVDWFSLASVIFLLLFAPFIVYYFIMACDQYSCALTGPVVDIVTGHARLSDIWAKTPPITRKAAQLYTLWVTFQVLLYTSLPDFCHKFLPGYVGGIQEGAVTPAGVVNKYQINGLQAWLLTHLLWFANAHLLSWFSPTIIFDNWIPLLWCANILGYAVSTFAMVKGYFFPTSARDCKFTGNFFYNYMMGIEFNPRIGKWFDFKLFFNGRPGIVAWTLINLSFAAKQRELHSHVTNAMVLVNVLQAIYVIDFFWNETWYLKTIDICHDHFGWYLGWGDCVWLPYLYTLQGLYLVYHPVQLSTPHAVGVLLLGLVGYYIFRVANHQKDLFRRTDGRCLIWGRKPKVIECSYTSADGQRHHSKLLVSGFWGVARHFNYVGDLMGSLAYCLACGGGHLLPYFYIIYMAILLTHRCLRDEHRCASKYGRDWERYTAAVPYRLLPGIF

MDA-MB-435 cells [2] = assay: Growth inhibition assay (Example 6); type: cell-based, human; conditions: read-out: IC50 for inhibition of cell growth (nM), treatment time
Method: […] Cells were quantified via measuring crystal violet staining or cellular metabolism of MTT. For every experiment, each condition was performed in hexuplicate; experiments were performed at least twice.
Cancer cell growth inhibition: acyclic-RGD-4C-DOXSF and cyclic-(N-Me-VRGDf-NH)-DOXSF were also assayed for their ability to inhibit growth of MDA-MB-435 cells relative to DOX and DOXSF. Cells treated in cell culture plates and non-treated (-control) cells were allowed to grow to near confluency, and then quantified via measuring crystal violet staining or cellular metabolism of MTT. […] Earlier control experiments established that the miniscule amounts of formaldehyde that would be released even from complete hydrolysis of the conjugate would contribute nothing to the observed growth inhibition. Conjugation of cytotoxic drugs to triggers and targeting groups often causes a drop in cytotoxicity.

MDA-MB-435 cells [3] = assay: Uptake of DOX, DOXSF and acyclic-RGD-4C-DOXSF by flow cytometry; type: cell-based, human; conditions: for RFU with 100 nM drug / RFU with 500 nM drug / RFU with 1000 nM drug: no additional Mn2+
Method: MDA-MB435 breast cancer cells in log phase growth were dissociated with trypsin-EDTA, counted, resuspended in media at 2×10^5 cells/mL, and plated into six-well plates (5.0×10^5 cells/well) and allowed to adhere overnight. Drug solutions of DOX, DOXSF, and ayclic-RGD-4C-DOXSF were prepared in DMSO with 1% acetic acid at 50 μM. Before treatment with drug, cell media was removed, cells were washed with HBSS (0.5 mL), and then fresh cell media, with or without 500 μM Mn^2+, was placed into the wells (2 mL). […] For each time point, the cell media was removed, cells were washed with HBSS, trypsinized, and trypsinization was quenched with 5 mL of cell media at 4° C. Cells were pelleted by centrifugation at 200 g for 5 min at 10° C. The supernatant was decanted, and the cells were resuspended in 5 mL of D-PBS at 4° C., repelleted, resuspended in 2 mL of D-PBS at 4° C., and placed on ice. […] The amount of drug uptake was measured by flow cytometry. Cells were analyzed with excitation at 488 nm (15 mW Ar ion laser), with emision monitored between 570 and 600 nm. Instrument settings were optimized for the cell line and held constant for all experiments; 10,000 cells were analyzed for each sample's anthracycline fluorescence. The data are presented as the mean fluorescence for each condition divided by the background, drug-free mean fluorescence.
Concentration of targeted drug relative to DOX and DOXSF in cells was determined from emission of the DOX fluorophore.

| Structure (SMILES) | reaction rate constant ([1]; pH 7.4, 37° C.) [min⁻¹] | reaction rate constant ([1]; pH 7.5, 4° C.) [min⁻¹] | reaction rate constant ([1]; pH 7.6, 4° C.) [min⁻¹] | reaction rate constant ([1]; pH 7.6, 37° C.) [min⁻¹] | AEBS binding affinity relative to the targeting group (AEBS; 0.05 nM 3H-tamoxifen) [%] | AEBS binding affinity relative to the targeting group (AEBS; 0.5 nM 3H-tamoxifen) [%] | AEBS binding affinity relative to the targeting group (AEBS; 5 nM 3H-tamoxifen) [%] | IC50 (MDA-MB-435 cells [2]; 4 h treatment) [nM] | RFU with 100 nM drug (MDA-MB-435 cells [3]; 30 min) [RFU] | RFU with 500 nM drug (MDA-MB-435 cells [3]; 30 min) [RFU] | RFU with 1000 nM drug (MDA-MB-435 cells [3]; 30 min) [RFU] | fold uptake higher than acyclic-RGD-4C-DOXSF and DOX (MDA-MB-435 cells [3]; 4 h, 500 nM) [fold] | RFU with 100 nM drug (MDA-MB-435 cells [3]; 4 h) [RFU] | RFU with 500 nM drug (MDA-MB-435 cells [3]; 4 h) [RFU] | RFU with 1000 nM drug (MDA-MB-435 cells [3]; 4 h) [RFU] | IC50 (MDA-MB-435 cells [2]; Homo sapiens, MDA-MB-435, 20 min, 20 min treatment) [nM] | IC50 (MDA-MB-435 cells [2]; Homo sapiens, MDA-MB-435, 1 h treatment) [nM] | IC50 (MDA-MB-435 cells [2]; Homo sapiens, MDA-MB-435, 4 h treatment) [nM] | fold uptake more than acyclic-RGD-4C-DOXSF (MDA-MB-435 cells [3]; 1 h drug treatment) [fold] |
| --- | --- | --- | --- | --- | --- | --- | --- | --- | --- | --- | --- | --- | --- | --- | --- | --- | --- | --- | --- |
| CC/C(=C(/c1ccc(O)cc1)c1ccc(OCCN(C)CCOCCOCCO/N=C/c2ccc(O)c(C(=O)NCN[C@H]3C[C@H](O[C@H]4C[C@](O)(C(=O)CO)Cc5c(O)c6c(c(O)c54)C(=O)c4c(OC)cccc4C6=O)O[C@@H](C)[C@H]3O)c2)cc1)c1ccccc1 [11c, E/Z-N-(2-Hydroxy-5-{[2-(2-{2-[(2-{4-[1-(4-hydroxy-phenyl)-2-phenyl-but-1-enyl]-phenoxy}-ethyl)-methyl-amino]-ethoxy}-ethoxy)-ethoxyimino]-methyl}-benzamide)-doxorubicin] | 0.0092 ± 0.0003 | 6.33e-05 ± 5e-06 | 9.67e-05 ± 8.3e-06 | 0.012 ± 0.0007 | 70 | 72 | 48 | – | – | – | – | – | – | – | – | – | – | – | – |
| COc1cccc2c1C(=O)c1c(O)c3c(c(O)c1C2=O)C[C@@](O)(C(=O)CO)C[C@@H]3O[C@H]1C[C@H](NCNC(=O)c2ccccc2O)[C@H](O)[C@H](C)O1 [doxsaliform, N-(2-Hydroxybenzamido-methyl)-doxorubicin] | – | – | – | – | – | – | – | 50 | 1.88 | 5.55 | 9.23 | 2 | 3.23 | 13.25 | 24.51 | – | – | – | – |
| COc1cccc2c1C(=O)c1c(O)c3c(c(O)c1C2=O)C[C@@](O)(C(=O)CO)C[C@@H]3O[C@H]1C[C@H](N)[C@H](O)[C@H](C)O1 [doxorubicin, reference compound] | – | – | – | – | – | – | – | – | 1.23 | 2.12 | 3.21 | – | 1.90 | 5.88 | 12.03 | 800 | 300 | 120 | 3 |
